Results on 1 compound are retold here after patent US12215332B2, “Method of increasing resistance against soybean rust in transgenic plants by increasing the scoparone” (BASF PLANT SCIENCE COMPANY GMBH, priority 2018, dated 2025).

The nature of test [1]: ABTS assay of coumarins' antioxidant activity. It is filed as physicochemical. The conditions noted are these: absorbance at 734 nm, 7 minutes at 37° C., compared to scopoletin, scopolin, umbelliferone, ascorbic acid and Trolox. On the procedure:
Antioxidant activity of scoparone was determined in an 2,2′-azinobis-(3-ethylbenzothiazoline-6-sulfonic acid) (ABTS)-assay and compared to authentic analytical standards of scopoletin, scopolin, umbelliferone, ascorbic acid and Trolox (6-hydroxy-2,5,7,8-tetramethylchroman-2-carboxylic acid).
The 2,2′-azinobis-(3-ethylbenzothiazoline-6-sulfonic acid (ABTS)-assay10 was applied to compare the antioxidant activity of different coumarins to Trolox and ascorbic acid as references. The radical monocation of ABTS (ABTS·+) was generated by oxidation of ABTS with potassium persulfate (K2S2O8) This was done by mixing aqueous ABTS (7 mM) and K2S2O8 (2.4 mM) in a 1:1 ratio (v/v). The mixture was placed in the dark and incubated at room temperature for 16 hours and then diluted with ethanol to an absorbance of 0.7 (±0.02) at 734 nm. All solutions were brought to a temperature of 37° C. Next, 990 μl of ABTS·+ was mixed with 10 μl of a test solution containing different concentrations of a coumarin standard. Ascorbic acid and Trolox served as positive and ethanol as the blanc control. Mixtures were incubated at 37° C. in a thermomixer (700 rpm) for 7 minutes. Absorbance at 734 nm was measured in a spectrophotometer following incubation for 7 minutes at 37° C. in a thermomixer (700 rpm).

For test [2], the system named is Phakopsora pachyrhizi uredospores. Put plainly: In vitro growth inhibition of Phakopsora pachyrhizi: appressoria formation on glass slides. It is filed as cell-based. On the procedure:
FIG. 2 depicts the inhibition of P. pachyrhitzi appressoria formation by scoparone in a concentration-dependent manner. P. pachyrhizi uredospores were resuspended in H2O supplemented with Tween-20 and 10 μM, 25 μM, 50 μM, 100 μM, 200 μM and 400 μM scoparone (solved in 0.1% DMSO) and incubated on glass slides in high humidity conditions. Treatment with 0.1% DMSO and H2O served as controls. The appressoria formation rate was determined by quantitative microscopic analysis. Only spores showing germtube formation with a visible thickening of the germ tube tip were counted as appressoria formation.
Uredospores of P. pachyrhizi (isolate BRO5) were harvested from heavily infected soybean leaves and equally suspended in water by shaking for 25 s at 5′000 rpm on a Precellys 24 homogenizer in the absence of homogenizing beads (Bertin instruments). […] Germination of spores and fungal development was evaluated by counting developing appressoria in the presence of 10-400 μM scoparone (in 0.1% DMSO) and compared to fungal proliferation in presence of H2O or 0.1% DMSO only (controls).
The germination rate and appressoria formation rate was determined by quantitative microscopic analysis. Spores showing a visible germ tube formation but no thickening of the germ tube tip were counted as “germinated”, whereas the presence of a thickened germ tube tip indicated the formation of an appressoria. […]

Entries after “also recorded” stand apart in the source; their conditions may differ.

`COc1cc2ccc(=O)oc2cc1OC` [scoparone, 6,7-dimethoxycoumarin]: the antioxidant activity result in test [1] is “lacks antioxidant activity”. In addition, the “formation of appressoria in-vitro” value in test [2] (400 μM scoparone) is “completely abolishes the formation of appressoria”. Also, in test [2] (10, 25, 50, 100, 200 and 400 μM scoparone in 0.1% DMSO, spores in H2O with Tween-20 on glass slides, controls 0.1% DMSO and H2O), the appressoria formation rate entry is “inhibiting appressoria formation in a dose dependent manner; also recorded: decreases the formation of appressoria in a dose dependent manner”.
